Laboratory results taken from ChEMBL document CHEMBL1122963, “[3H]Batrachotoxinin A 20 alpha-benzoate binding to voltage-sensitive sodium channels: a rapid and quantitative assay for local anesthetic activity in a variety of drugs” (J Med Chem, 1985).

Assays:
[1] = target: T1, Sodium channel alpha subunits; brain (Types I, II, III) (Homo sapiens, UniProt P35498+Q99250+Q9NY46); settings: Cavia porcellus; Cerebral cortex; at 10 µM
[2] = target: T1, Sodium channel alpha subunits; brain (Types I, II, III); settings: Cavia porcellus; Cerebral cortex; at 100 µM
[3] = target: T1, Sodium channel alpha subunits; brain (Types I, II, III); assay: Inhibition of binding of Batrachotoxinin [3H]BTX-B to high affinity sites on voltage dependent sodium channels in a vesicular preparation from guinea pig cerebral cortex; type: tissue-based, Cavia porcellus
[4] = target: T1, Sodium channel alpha subunits; brain (Types I, II, III); settings: Cavia porcellus; Cerebral cortex; at 10 µM; remark: listed apart in the source

T1 sequence (Q99250 whole entry, looked up, other chains not shown): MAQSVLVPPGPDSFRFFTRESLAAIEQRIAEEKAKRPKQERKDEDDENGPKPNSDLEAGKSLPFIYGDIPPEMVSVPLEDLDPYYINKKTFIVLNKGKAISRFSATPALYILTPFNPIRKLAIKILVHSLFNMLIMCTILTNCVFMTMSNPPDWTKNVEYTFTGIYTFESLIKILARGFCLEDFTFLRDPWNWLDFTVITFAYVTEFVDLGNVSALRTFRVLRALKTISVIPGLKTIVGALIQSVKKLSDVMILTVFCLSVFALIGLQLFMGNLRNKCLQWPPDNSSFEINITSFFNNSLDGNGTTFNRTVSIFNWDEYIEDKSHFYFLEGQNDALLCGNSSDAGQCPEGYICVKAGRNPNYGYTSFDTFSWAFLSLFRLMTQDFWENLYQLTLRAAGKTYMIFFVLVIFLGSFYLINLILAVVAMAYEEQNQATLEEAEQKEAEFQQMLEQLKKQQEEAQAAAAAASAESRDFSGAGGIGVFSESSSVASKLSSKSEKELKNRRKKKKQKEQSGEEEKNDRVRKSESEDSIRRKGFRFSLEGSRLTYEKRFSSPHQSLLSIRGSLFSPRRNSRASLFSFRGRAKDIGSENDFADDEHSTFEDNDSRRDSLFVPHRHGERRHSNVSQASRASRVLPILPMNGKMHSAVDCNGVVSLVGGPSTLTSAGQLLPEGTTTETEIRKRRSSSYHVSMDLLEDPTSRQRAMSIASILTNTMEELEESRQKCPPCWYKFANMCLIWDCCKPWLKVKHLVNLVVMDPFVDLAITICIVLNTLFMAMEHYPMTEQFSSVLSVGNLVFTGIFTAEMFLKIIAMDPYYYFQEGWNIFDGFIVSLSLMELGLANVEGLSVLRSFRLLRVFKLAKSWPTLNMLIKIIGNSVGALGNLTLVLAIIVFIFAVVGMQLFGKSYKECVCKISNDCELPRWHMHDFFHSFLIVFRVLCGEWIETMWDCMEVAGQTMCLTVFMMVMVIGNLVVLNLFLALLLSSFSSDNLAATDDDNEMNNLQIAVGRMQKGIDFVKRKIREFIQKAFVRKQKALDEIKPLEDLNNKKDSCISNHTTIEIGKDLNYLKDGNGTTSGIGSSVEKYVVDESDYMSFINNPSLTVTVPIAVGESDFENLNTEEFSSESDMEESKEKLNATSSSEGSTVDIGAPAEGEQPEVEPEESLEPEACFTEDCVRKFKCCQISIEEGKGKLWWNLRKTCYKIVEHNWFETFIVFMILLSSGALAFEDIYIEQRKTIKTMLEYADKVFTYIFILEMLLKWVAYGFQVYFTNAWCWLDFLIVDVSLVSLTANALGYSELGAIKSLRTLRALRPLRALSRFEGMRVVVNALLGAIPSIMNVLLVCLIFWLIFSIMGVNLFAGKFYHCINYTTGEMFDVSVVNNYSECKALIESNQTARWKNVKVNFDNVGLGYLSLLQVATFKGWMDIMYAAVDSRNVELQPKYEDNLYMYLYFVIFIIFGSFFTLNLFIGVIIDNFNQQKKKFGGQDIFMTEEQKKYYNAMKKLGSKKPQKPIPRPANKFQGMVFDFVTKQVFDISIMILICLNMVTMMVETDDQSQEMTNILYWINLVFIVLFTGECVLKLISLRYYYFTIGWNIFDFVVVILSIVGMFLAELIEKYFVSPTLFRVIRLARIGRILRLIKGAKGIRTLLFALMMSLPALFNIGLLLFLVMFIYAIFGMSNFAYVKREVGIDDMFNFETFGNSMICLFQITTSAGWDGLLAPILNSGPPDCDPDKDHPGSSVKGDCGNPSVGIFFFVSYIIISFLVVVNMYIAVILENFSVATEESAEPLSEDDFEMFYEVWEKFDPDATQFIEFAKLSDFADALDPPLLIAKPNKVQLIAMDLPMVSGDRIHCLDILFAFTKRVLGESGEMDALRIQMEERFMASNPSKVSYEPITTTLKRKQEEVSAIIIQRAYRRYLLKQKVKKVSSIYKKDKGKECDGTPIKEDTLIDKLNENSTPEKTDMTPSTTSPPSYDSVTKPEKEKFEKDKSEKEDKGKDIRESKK
T1 sequence (Q9NY46 whole entry, looked up, other chains not shown): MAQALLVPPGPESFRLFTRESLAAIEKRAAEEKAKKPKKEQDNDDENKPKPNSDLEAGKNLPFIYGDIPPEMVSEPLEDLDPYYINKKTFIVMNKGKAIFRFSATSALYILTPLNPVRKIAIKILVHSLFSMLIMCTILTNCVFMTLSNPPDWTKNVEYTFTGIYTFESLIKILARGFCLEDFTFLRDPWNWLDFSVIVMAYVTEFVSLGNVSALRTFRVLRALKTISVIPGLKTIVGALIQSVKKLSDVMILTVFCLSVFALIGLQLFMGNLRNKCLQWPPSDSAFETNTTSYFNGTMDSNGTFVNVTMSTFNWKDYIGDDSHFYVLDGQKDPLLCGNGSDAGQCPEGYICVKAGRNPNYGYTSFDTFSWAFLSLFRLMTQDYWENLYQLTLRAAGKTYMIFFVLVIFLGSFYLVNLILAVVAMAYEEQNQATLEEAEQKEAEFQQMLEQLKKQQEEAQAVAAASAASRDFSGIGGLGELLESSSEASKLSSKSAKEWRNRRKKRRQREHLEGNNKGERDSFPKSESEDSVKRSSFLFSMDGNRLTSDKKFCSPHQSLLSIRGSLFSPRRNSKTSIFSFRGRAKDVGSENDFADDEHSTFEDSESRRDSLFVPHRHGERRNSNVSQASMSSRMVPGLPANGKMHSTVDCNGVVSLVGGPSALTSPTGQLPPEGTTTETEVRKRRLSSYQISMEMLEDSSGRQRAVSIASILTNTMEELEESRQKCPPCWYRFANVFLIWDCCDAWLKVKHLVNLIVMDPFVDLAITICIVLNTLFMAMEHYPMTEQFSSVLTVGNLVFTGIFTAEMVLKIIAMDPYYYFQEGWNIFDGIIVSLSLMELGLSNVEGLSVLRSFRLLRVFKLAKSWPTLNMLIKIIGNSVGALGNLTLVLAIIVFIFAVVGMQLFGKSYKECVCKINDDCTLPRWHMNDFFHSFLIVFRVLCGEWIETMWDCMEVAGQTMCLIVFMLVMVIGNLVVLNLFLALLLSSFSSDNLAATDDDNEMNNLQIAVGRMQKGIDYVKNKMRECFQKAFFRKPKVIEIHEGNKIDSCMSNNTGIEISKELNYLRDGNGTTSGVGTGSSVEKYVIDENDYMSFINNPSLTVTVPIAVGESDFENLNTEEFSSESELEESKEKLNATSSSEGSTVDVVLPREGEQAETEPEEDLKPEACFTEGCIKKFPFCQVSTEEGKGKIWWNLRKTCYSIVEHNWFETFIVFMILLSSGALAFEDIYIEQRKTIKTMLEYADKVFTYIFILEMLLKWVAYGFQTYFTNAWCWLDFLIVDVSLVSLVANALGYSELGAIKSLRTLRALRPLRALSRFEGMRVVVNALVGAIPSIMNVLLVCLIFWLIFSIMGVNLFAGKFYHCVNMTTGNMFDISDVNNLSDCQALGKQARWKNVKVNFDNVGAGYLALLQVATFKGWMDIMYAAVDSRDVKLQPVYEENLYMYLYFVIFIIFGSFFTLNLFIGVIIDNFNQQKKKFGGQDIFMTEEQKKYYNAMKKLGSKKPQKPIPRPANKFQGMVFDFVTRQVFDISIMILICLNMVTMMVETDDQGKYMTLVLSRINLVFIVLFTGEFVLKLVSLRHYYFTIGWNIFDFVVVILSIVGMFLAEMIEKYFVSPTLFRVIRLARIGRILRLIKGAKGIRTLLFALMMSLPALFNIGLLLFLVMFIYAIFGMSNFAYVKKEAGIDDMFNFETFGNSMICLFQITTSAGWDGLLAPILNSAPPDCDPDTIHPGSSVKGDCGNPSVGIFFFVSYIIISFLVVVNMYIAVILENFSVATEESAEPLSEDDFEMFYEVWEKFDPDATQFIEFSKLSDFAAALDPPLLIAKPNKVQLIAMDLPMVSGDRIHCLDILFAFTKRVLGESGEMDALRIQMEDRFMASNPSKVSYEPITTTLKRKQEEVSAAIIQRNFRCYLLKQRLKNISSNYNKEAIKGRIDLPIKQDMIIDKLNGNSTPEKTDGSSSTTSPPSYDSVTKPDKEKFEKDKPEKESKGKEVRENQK

SMILES: CCCC(C)C1(CC)C(=O)NC(=O)NC1=O (stereo unspecified)
- inhibition [1]: 1.2%
- inhibition [2]: 7.6%

SMILES: CCN(CC)CCCCCCCCOC(=O)c1cc(C)c(C)c(C)c1
- inhibition [1]: 3.4%
- inhibition [2]: 21.6%

SMILES: CNC1=Nc2ccc(Cl)cc2C(c2ccccc2)=[N+]([O-])C1
- inhibition [1]: 4.4%
- inhibition [2]: 35%

SMILES: C=C[C@@]1(C)CC(=O)[C@]2(O)[C@@]3(C)[C@@H](O)CCC(C)(C)[C@@H]3[C@H](O)[C@H](OC(C)=O)[C@@]2(C)O1 [COLFORSIN]
- IC50 [3]: 60 µM
- inhibition [2]: 62.8%

SMILES: CCN(CC)CCNC(=O)c1ccc(N)cc1
- inhibition [1]: 7.8%
- inhibition [2]: 22.5%

SMILES: CCOC(=O)c1ccc(N)cc1 [BENZOCAINE]
- IC50 [3]: 910 µM
- inhibition [1]: 5.1%
- inhibition [2]: 0%

SMILES: CC(C)CNCCOC(=O)c1ccc(N)cc1 [BUTETHAMINE]
- IC50 [3]: 55 µM
- inhibition [1]: 12.3%
- inhibition [2]: 63.2%

SMILES: COc1cc2c(cc1OC)C1CC(=O)C(CC(C)C)CN1CC2 (stereo unspecified) [TETRABENAZINE]
- IC50 [3]: 85 µM
- inhibition [1]: 7%
- inhibition [2]: 55%

SMILES: CN1C(=O)CN=C(c2ccccc2)c2cc(Cl)ccc21
- inhibition [1]: 15.2%
- inhibition [2]: 45.4%

SMILES: CCCNC(C)C(=O)Nc1ccccc1C (stereo unspecified) [PRILOCAINE]
- IC50 [3]: 54 µM
- inhibition [1]: 14.2%
- inhibition [2]: 58.5%

SMILES: COc1ccc(C2C(=O)c3ccccc3C2=O)cc1
- inhibition [1]: 1.3%
- inhibition [2]: 0%

SMILES: CCN(CC)CC(=O)Nc1c(C)cccc1C
- inhibition [1]: 9.8%
- inhibition [2]: 31.4%

SMILES: COc1ccc(CN(CCN(C)C)c2nccs2)cc1 [ZOLAMINE]
- IC50 [3]: 19.2 µM
- inhibition [1]: 35.9%
- inhibition [2]: 82.4%

SMILES: O=c1n(CCCN2CCN(c3cccc(Cl)c3)CC2)nc2ccccn12
- inhibition [1]: 26.2%
- inhibition [2]: 79.6%

SMILES: COc1ccc(Cc2nccc3cc(OC)c(OC)cc23)cc1OC
- inhibition [1]: 11%
- inhibition [2]: 56%

SMILES: CC1CCCC[N+]1(C)CCCOC(=O)c1ccccc1.[I-] (stereo unspecified)
- IC50 [3]: 360 µM
- inhibition [1]: 9.6%
- inhibition [2]: 31.4%

SMILES: Cc1cccc(C)c1NC(=O)C1CCCCN1C (stereo unspecified)
- inhibition [1]: 5.3%
- inhibition [2]: 29.3%

SMILES: c1ccc2c(c1)OCC(CN1CCCCC1)O2 (stereo unspecified) [PIPEROXAN]
- IC50 [3]: 61 µM
- inhibition [2]: 58.8%

SMILES: O=C(Nc1ccccc1)OCC(CN1CCCCC1)OC(=O)Nc1ccccc1 (stereo unspecified) [DIPERODON]
- IC50 [3]: 1.3 µM
- inhibition [1]: 87.8%

SMILES: CN(C)CC/C=C1/c2ccccc2Sc2ccc(Cl)cc21 [CHLORPROTHIXENE]
- IC50 [3]: < 10 µM
- inhibition [1]: 55.2%

SMILES: CN1CCN(CCCN2c3ccccc3Sc3ccc(C(F)(F)F)cc32)CC1 [TRIFLUOPERAZINE]
- IC50 [3]: 5 µM
- inhibition [1]: 79.8%

SMILES: CN1CC[C@]23CCCC[C@H]2[C@H]1Cc1ccc(O)cc13 [LEVORPHANOL]
- IC50 [3]: 25 µM
- inhibition [1]: 33%

SMILES: OCCN1CCN(CCCN2c3ccccc3Sc3ccc(C(F)(F)F)cc32)CC1 [FLUPHENAZINE]
- IC50 [3]: 3.7 µM
- inhibition [1]: 72.8%

SMILES: COc1cc2nc(N3CCN(C(=O)c4ccco4)CC3)nc(N)c2cc1OC [PRAZOSIN]
- IC50 [3]: 10.1 µM
- inhibition [1]: 58.6%

SMILES: CC1CCCCN1CCCOC(=O)c1ccc(OC2CCCCC2)cc1 (stereo unspecified) [CYCLOMETHYCAINE]
- IC50 [3]: 2 µM
- inhibition [1]: 81.9%

SMILES: CCCCOC(=O)c1ccc(N)cc1
- inhibition [1]: 7%
- inhibition [2]: 36.8%

SMILES: CN1CCc2cc3c(cc2[C@H]1[C@@H]1OC(=O)c2c1ccc1c2OCO1)OCO3
- inhibition [2]: 1.8%

SMILES: CN(C)CCCN1c2ccccc2CCc2ccccc21 [IMIPRAMINE]
- IC50 [3]: 3.6 µM
- inhibition [1]: 72.7%

SMILES: CC(Cc1ccccc1)NCCC(c1ccccc1)c1ccccc1 (stereo unspecified) [PRENYLAMINE]
- IC50 [3]: 0.3 µM
- inhibition [1]: 98.8%

SMILES: COc1cc(C(=O)OCCCN(C)CCN(C)CCCOC(=O)c2cc(OC)c(OC)c(OC)c2)cc(OC)c1OC [HEXOBENDINE]
- IC50 [3]: 1.4 µM
- inhibition [1]: 77.2%

SMILES: Cc1ccc(OCC(O)C(C)NC(C)C)c2c1CCC2 (stereo unspecified) [ZENIDOLOL]
- IC50 [3]: < 10 µM
- inhibition [1]: 64.2%

SMILES: CC(CNC1CCCCC1)OC(=O)c1ccccc1 (stereo unspecified) [HEXYLCAINE]
- IC50 [3]: 7 µM
- inhibition [1]: 54.9%

SMILES: COC(=O)[C@H]1[C@@H](OC(=O)c2ccccc2)C[C@@H]2CC[C@H]1N2C [COCAINE]
- IC50 [3]: 49 µM
- inhibition [1]: 19.5%
- inhibition [2]: 63.2%

SMILES: CC[C@@H](CO)NC(=O)[C@@H]1C=C2c3cccc4c3c(cn4C)C[C@H]2N(C)C1
- inhibition [2]: 17.8%

SMILES: CCOC(=O)c1cnc2c(cnn2CC)c1NN=C(C)C
- inhibition [1]: 8.3%
- inhibition [2]: 20.1%

SMILES: CN1CCN2c3ccccc3Cc3ccccc3C2C1 (stereo unspecified) [MIANSERIN]
- IC50 [3]: 5.5 µM
- inhibition [1]: 57.4%

SMILES: COc1ccc(OC)c(C(O)C(C)NC(C)(C)C)c1 (stereo unspecified) [BUTOXAMINE]
- IC50 [3]: 27 µM
- inhibition [1]: 26.8%

SMILES: CN(C)CCCN1c2ccccc2CCc2ccc(Cl)cc21 [CLOMIPRAMINE]
- IC50 [3]: < 10 µM
- inhibition [1]: 76.6%

SMILES: CCCCc1cc2ccccc2c(OCCN(C)C)n1 [DIMETHISOQUIN]
- IC50 [3]: 3.4 µM
- inhibition [1]: 73.4%

SMILES: CN(C)C(=O)C(CCN1CCC(O)(c2ccc(Cl)cc2)CC1)(c1ccccc1)c1ccccc1 [LOPERAMIDE]
- IC50 [3]: 0.27 µM
- inhibition [1]: 100%

SMILES: CCN(CC)CCNC(=O)c1ccc(N=[N+]=[N-])cc1
- IC50 [3]: 65 µM
- inhibition [1]: 13.4%
- inhibition [2]: 56.1%

SMILES: CCCCN(CCCC)CCCOC(=O)c1ccc(N)cc1 [BUTACAINE]
- IC50 [3]: 2.7 µM
- inhibition [1]: 75.3%

SMILES: CN1CCC(=C2c3ccccc3C=Cc3ccccc32)CC1 [CYPROHEPTADINE]
- IC50 [3]: 1 µM
- inhibition [1]: 83%

SMILES: CCCNC(C)(C)COC(=O)c1ccccc1 [MEPRYLCAINE]
- IC50 [3]: 7.6 µM
- inhibition [1]: 57.6%

SMILES: CCCNC(C)C(=O)Nc1c(C)csc1C(=O)OC (stereo unspecified) [ARTICAINE]
- inhibition [1]: 17.1%
- inhibition [2]: 62.2%

SMILES: Cn1c(=O)c2nc(-c3ccc(S(=O)(=O)O)cc3)[nH]c2n(C)c1=O
- inhibition [1]: 1.6%
- inhibition [2]: 2.9%

SMILES: CCCC(C(=O)OCCN(CC)CC)(c1ccccc1)c1ccccc1 [PROADIFEN]
- IC50 [3]: 4.2 µM
- inhibition [1]: 75.4%

SMILES: CN(C(=O)CN(CCO)CC(=O)N(C)C(C)(C)Cc1ccccc1)C(C)(C)Cc1ccccc1 [OXETHAZAINE]
- IC50 [3]: 2.3 µM
- inhibition [1]: 83.9%

SMILES: COc1ccc2c(c1)c(CC(=O)O)c(C)n2C(=O)c1ccc(Cl)cc1
- inhibition [1]: 3.3%
- inhibition [2]: 11.2%

SMILES: CN1CC[C@]23c4c5ccc(O)c4O[C@H]2[C@@H](O)C=C[C@H]3[C@H]1C5
- inhibition [2]: 5.3%

SMILES: OC(c1ccccc1)(c1ccccc1)C1CCNCC1 [AZACYCLONOL]
- IC50 [3]: 14 µM
- inhibition [1]: 43.2%

SMILES: CN(C)CCC=C1c2ccccc2CCc2ccccc21 [AMITRIPTYLINE]
- IC50 [3]: < 10 µM
- inhibition [1]: 73.8%

SMILES: Nc1ccncc1
- inhibition [1]: 1.2%
- inhibition [2]: 3.8%

SMILES: CC(C)(C)NCC(CO)O/N=C1\c2ccccc2C2C=CC=CC12 (stereo unspecified)
- IC50 [3]: 3.7 µM
- inhibition [1]: 72.5%

SMILES: C[C@]12CC[C@@H]3c4ccc(O)cc4CC[C@H]3[C@@H]1CC[C@@H]2O
- inhibition [1]: 17.8%
- inhibition [2]: 53.3%

SMILES: Nc1nc(Cl)nc2c1ncn2[C@@H]1O[C@H](CO)[C@@H](O)[C@H]1O
- inhibition [1]: 1.3%
- inhibition [2]: 3.5%

SMILES: CNCCC=C1c2ccccc2CCc2ccccc21 [NORTRIPTYLINE]
- IC50 [3]: < 10 µM
- inhibition [1]: 69.4%

SMILES: C(=C\c1ccccc1)/CN1CCN(C(c2ccccc2)c2ccccc2)CC1 [CINNARIZINE]
- inhibition [4]: 94.6%

SMILES: COc1ccc(C2CNC(=O)C2)cc1OC1CCCC1 (stereo unspecified)
- inhibition [1]: 3.1%
- inhibition [2]: 8.5%

SMILES: N=C1CCCCCCCCCCCN1C1CCCC1c1ccccc1 (stereo unspecified)
- IC50 [3]: 0.8 µM
- inhibition [2]: 100%

SMILES: CCCCOc1ccc(OCCCN2CCOCC2)cc1 [PRAMOXINE]
- IC50 [3]: 21.2 µM
- inhibition [1]: 29.7%
- inhibition [2]: 86.3%

SMILES: CN(C)CCC(c1ccc(Cl)cc1)c1ccccn1 (stereo unspecified) [CHLORPHENIRAMINE]
- IC50 [3]: 10 µM
- inhibition [1]: 49.7%

SMILES: COC(=O)C1=C(C)NC(C)=C(C(=O)OCC(C)C)C1c1ccccc1[N+](=O)[O-] (stereo unspecified) [NISOLDIPINE]
- IC50 [3]: 26 µM
- inhibition [1]: 25.9%

SMILES: CN/C(=N\CCSCc1nc[nH]c1C)NC#N
- inhibition [1]: 0%
- inhibition [2]: 4.1%

SMILES: C[C@@H]1O[C@H](n2cnc3c(N)ncnc32)C[C@H]1O
- inhibition [2]: 3.5%

SMILES: CCN(CC)CCCC(C)Nc1c2ccc(Cl)cc2nc2ccc(OC)cc12 (stereo unspecified) [QUINACRINE]
- IC50 [3]: 3.3 µM
- inhibition [1]: 73.3%

SMILES: CCN(CC)CCOC(=O)C1(C2CCCCC2)CCCCC1 [DICYCLOMINE]
- IC50 [3]: 28 µM
- inhibition [1]: 75%

SMILES: CN1CC[C@@]23CCCC[C@@H]2[C@@H]1Cc1ccc(O)cc13 [DEXTRORPHAN]
- IC50 [3]: 18 µM
- inhibition [1]: 38.2%

SMILES: CC(C)NCC(O)c1ccc(NS(C)(=O)=O)cc1 (stereo unspecified)
- inhibition [2]: 4.6%

SMILES: OCCOCCN1CCN(C(c2ccccc2)c2ccc(Cl)cc2)CC1 (stereo unspecified) [HYDROXYZINE]
- IC50 [3]: < 10 µM
- inhibition [1]: 73.9%

SMILES: CCOc1ccc(C(=O)OCCN(CC)CC)cc1 [PARETHOXYCAINE]
- IC50 [3]: 24 µM
- inhibition [1]: 33.2%

SMILES: CN(C)CCC=C1c2ccccc2COc2ccccc21 [DOXEPIN]
- IC50 [3]: < 10 µM
- inhibition [1]: 67.7%

SMILES: CN(C)CCCN1c2ccccc2[S+]([O-])c2ccc(Cl)cc21 (stereo unspecified)
- inhibition [1]: 18%
- inhibition [2]: 69.1%

SMILES: CC1CCCCN1CCCOC(=O)c1ccccc1 (stereo unspecified) [PIPEROCAINE]
- IC50 [3]: 13 µM
- inhibition [1]: 43.6%
